Data reported in the NIST ThermoML archive (doi:10.1021/acs.jced.7b00002).
Numbers after ± are expanded uncertainties.

Experiment: xn = mol fraction of the nth substance listed
Conditions: 97.6 kPa, Liquid; for viscosity: Capillary tube (Ostwald / Ubbelohde) method; for mass density: Vibrating tube method

Q: Which results are given for CCCCCCCC[n+]1ccn(C)c1.[Cl-] [1-methyl-3-octylimidazolium chloride] + CC(=O)N(C)C?
A: viscosity (303.15 K, x1 = 0.139): 3.63 mPa·s; viscosity (303.15 K, x1 = 0.273): 14.75 mPa·s; viscosity (303.15 K, x1 = 0.361): 32.45 mPa·s; viscosity (303.15 K, x1 = 0.468): 92.29 mPa·s; viscosity (303.15 K, x1 = 0.602): 288.58 mPa·s; viscosity (303.15 K, x1 = 0.786): 1049.5 mPa·s; viscosity (303.15 K, x1 = 0.877): 1865.4 mPa·s; viscosity (303.15 K, x1 = 1): 7339.7 mPa·s; mass density (303.15 K, x1 = 0.139): 958.09 ± 2 kg/m3; mass density (303.15 K, x1 = 0.273): 975.02 ± 2.1 kg/m3; mass density (303.15 K, x1 = 0.361): 981.93 ± 2.1 kg/m3; mass density (303.15 K, x1 = 0.468): 988.64 ± 2.1 kg/m3; mass density (303.15 K, x1 = 0.602): 994.87 ± 2.1 kg/m3; mass density (303.15 K, x1 = 0.786): 1001.37 ± 2.1 kg/m3; mass density (303.15 K, x1 = 0.877): 1003.75 ± 2.1 kg/m3; mass density (303.15 K, x1 = 1): 1006.2 ± 2.2 kg/m3; viscosity (308.15 K, x1 = 0.139): 3.26 mPa·s; viscosity (308.15 K, x1 = 0.273): 12.52 mPa·s; viscosity (308.15 K, x1 = 0.361): 26.51 mPa·s; viscosity (308.15 K, x1 = 0.468): 70.68 mPa·s; viscosity (308.15 K, x1 = 0.602): 210.24 mPa·s; viscosity (308.15 K, x1 = 0.786): 714.83 mPa·s; viscosity (308.15 K, x1 = 0.877): 1255 mPa·s; viscosity (308.15 K, x1 = 1): 4272.9 mPa·s; mass density (308.15 K, x1 = 0.139): 954.07 ± 2 kg/m3; mass density (308.15 K, x1 = 0.273): 971.38 ± 2.1 kg/m3; mass density (308.15 K, x1 = 0.361): 978.45 ± 2.1 kg/m3; mass density (308.15 K, x1 = 0.468): 985.3 ± 2.1 kg/m3; mass density (308.15 K, x1 = 0.602): 991.72 ± 2.1 kg/m3; mass density (308.15 K, x1 = 0.786): 998.36 ± 2.1 kg/m3; mass density (308.15 K, x1 = 0.877): 1000.8 ± 2.1 kg/m3; mass density (308.15 K, x1 = 1): 1003.33 ± 2.1 kg/m3; viscosity (313.15 K, x1 = 0.139): 2.94 mPa·s; viscosity (313.15 K, x1 = 0.273): 10.65 mPa·s; viscosity (313.15 K, x1 = 0.361): 21.93 mPa·s; viscosity (313.15 K, x1 = 0.468): 55.22 mPa·s; viscosity (313.15 K, x1 = 0.602): 156.62 mPa·s; viscosity (313.15 K, x1 = 0.786): 502.24 mPa·s; viscosity (313.15 K, x1 = 0.877): 853.26 mPa·s; viscosity (313.15 K, x1 = 1): 2766.9 mPa·s; mass density (313.15 K, x1 = 0.139): 950.12 ± 2 kg/m3; mass density (313.15 K, x1 = 0.273): 967.74 ± 2.1 kg/m3; mass density (313.15 K, x1 = 0.361): 974.97 ± 2.1 kg/m3; mass density (313.15 K, x1 = 0.468): 981.99 ± 2.1 kg/m3; mass density (313.15 K, x1 = 0.602): 988.57 ± 2.1 kg/m3; mass density (313.15 K, x1 = 0.786): 995.34 ± 2.1 kg/m3; mass density (313.15 K, x1 = 0.877): 997.86 ± 2.1 kg/m3; mass density (313.15 K, x1 = 1): 1000.48 ± 2.1 kg/m3; viscosity (318.15 K, x1 = 0.139): 2.65 mPa·s; viscosity (318.15 K, x1 = 0.273): 9.2 mPa·s; viscosity (318.15 K, x1 = 0.361): 18.32 mPa·s; viscosity (318.15 K, x1 = 0.468): 44.2 mPa·s; viscosity (318.15 K, x1 = 0.602): 119.22 mPa·s; viscosity (318.15 K, x1 = 0.786): 358.94 mPa·s; viscosity (318.15 K, x1 = 0.877): 594.67 mPa·s; viscosity (318.15 K, x1 = 1): 1788.6 mPa·s; mass density (318.15 K, x1 = 0.139): 946.26 ± 2 kg/m3; mass density (318.15 K, x1 = 0.273): 964.11 ± 2.1 kg/m3; mass density (318.15 K, x1 = 0.361): 971.5 ± 2.1 kg/m3; mass density (318.15 K, x1 = 0.468): 978.68 ± 2.1 kg/m3; mass density (318.15 K, x1 = 0.602): 985.42 ± 2.1 kg/m3; mass density (318.15 K, x1 = 0.786): 992.37 ± 2.1 kg/m3; mass density (318.15 K, x1 = 0.877): 994.92 ± 2.1 kg/m3; mass density (318.15 K, x1 = 1): 997.64 ± 2.1 kg/m3; viscosity (323.15 K, x1 = 0.139): 2.42 mPa·s; viscosity (323.15 K, x1 = 0.273): 8.02 mPa·s; viscosity (323.15 K, x1 = 0.361): 15.51 mPa·s; viscosity (323.15 K, x1 = 0.468): 35.89 mPa·s; viscosity (323.15 K, x1 = 0.602): 92.49 mPa·s; viscosity (323.15 K, x1 = 0.786): 263.25 mPa·s; viscosity (323.15 K, x1 = 0.877): 425.36 mPa·s; viscosity (323.15 K, x1 = 1): 1198.7 mPa·s; mass density (323.15 K, x1 = 0.139): 942.47 ± 2 kg/m3; mass density (323.15 K, x1 = 0.273): 960.49 ± 2 kg/m3; mass density (323.15 K, x1 = 0.361): 968.04 ± 2.1 kg/m3; mass density (323.15 K, x1 = 0.468): 975.38 ± 2.1 kg/m3; mass density (323.15 K, x1 = 0.602): 982.29 ± 2.1 kg/m3; mass density (323.15 K, x1 = 0.786): 989.43 ± 2.1 kg/m3; mass density (323.15 K, x1 = 0.877): 992 ± 2.1 kg/m3; mass density (323.15 K, x1 = 1): 994.82 ± 2.1 kg/m3; viscosity (328.15 K, x1 = 0.139): 2.21 mPa·s; viscosity (328.15 K, x1 = 0.273): 7.04 mPa·s; viscosity (328.15 K, x1 = 0.361): 13.24 mPa·s; viscosity (328.15 K, x1 = 0.468): 29.51 mPa·s; viscosity (328.15 K, x1 = 0.602): 72.76 mPa·s; viscosity (328.15 K, x1 = 0.786): 198.27 mPa·s; viscosity (328.15 K, x1 = 0.877): 310.37 mPa·s; viscosity (328.15 K, x1 = 1): 828.3 mPa·s
